Experimental data as given in patent US10245249B2, “Pharmaceutical compositions comprising nitroxyl donors” (Cardioxyl Pharmaceuticals, Inc., priority 2013, dated 2019).

How the values were obtained:
beagle dogs = assay: Canine peripheral vein toxicity model, 24 hour infusion (clinical pathology markers of inflammation: WBC, fibrinogen, CRP); type: in vivo; details: for NOAEL (μg/kg/min) (actual): based on clinical pathology markers (WBC, fibrinogen, CRP), 24 hour infusion, CAPTISOL 7% w/v, pH 4
Method: Key inflammatory markers measured include white blood cells (WBC), fibrinogen, and C-reactive protein (CRP).
After 24 hours of infusion, clinical pathology changes similar to those observed in previous studies using an implanted central catheter were detected.
Studies were conducted in male and female beagle dogs. Animals were allowed free access to drinking water and a commercial canine diet under standard laboratory conditions. Animals were fasted prior to blood sample collections when indicated by the study protocol. Fluorescent lighting was provided via an automatic timer for approximately 12 hours per day. On occasion, the dark cycle was interrupted intermittently due to study-related activities. Temperature and humidity were monitored and recorded daily and maintained to the maximum extent possible between 64° F. to 84° F. and 30% to 70%, respectively. The dogs were acclimated for a period of at least 1 week. During this period, the animals were weighed weekly and observed with respect to general health and any signs of disease. The animals were acclimated to wearing a jacket for at least three days prior to dose administration. Additionally, the animals were also acclimated to wearing an Elizabethan collar (e-collar) during the jacket acclimation.
Animals were catheterized the day prior to dose administration. A percutaneous catheter was placed (using aseptic technique and sterile bandaging) in the cephalic vein distal to the elbow. The animals were free-moving in their cages during continuous infusion dose administration. To facilitate continuous infusion dose administration, the peripheral catheter was attached to an extension set routed underneath a canine jacket and then attached to a tether infusion system. To prevent the animals from accessing/removing the peripherally placed percutaneous catheter, the catheterization site was bandaged using Vet Wrap and an e-collar was placed on the animals for the duration of the treatment (i.e., the catheterized period). During the pretreatment period, the venous catheter was infused continuously at a rate of approximately 2-4 mL/hr with 0.9% sodium chloride for injection, USP (saline) to maintain catheter patency. Prior to dosing, the infusion system was pre-filled (slow bolus infusion) with the respective dosing solution to ensure that dosing began as soon as the infusion pump was started. The infusion line was connected to a reservoir containing the control or test compound and the infusion was started. Test compositions were infused continuously, at a predetermined constant infusion rate (1 or 2 mL/kg/hr), for 24 hours and were compared at molar equivalent dose rates.
A detailed clinical examination of each animal was performed twice daily and body temperature measurements and blood samples for clinical pathology were collected from all animals pre-dose and 6 hours, 12 hours, 24 hours and 72 hours post start of composition infusion. At the termination of the study, all animals were euthanized at their scheduled necropsy and complete necropsy examinations were performed. Selected tissues were collected, fixed and stored for potential future microscopic examination. The cephalic vein containing the infusion catheter was dissected intact along with the brachial vein and examined along its entire length. The location of the catheter tip was marked on the unfixed specimen. After fixation, the specimen was trimmed and processed to slide to provide transverse histologic sections representing the catheter tip and surrounding tissues both proximal and distal to the catheter tip (i.e., 1 cm distal to the catheter tip, at the catheter tip, and 1, 5, 10, 15, and 20 cm proximal to the catheter tip). Relative to the catheter tip, “proximal” was defined as closer to the heart and “distal” was defined as further from the heart.
Each compound was formulated with CAPTISOL® (7% w/v) in sterile water at a pH of 4. […]

heart failure canines = assay: Hemodynamic efficacy in heart failure canines (tachycardia-pacing model); type: in vivo, beagle dogs; details: for ESP / ESPVR / HR / PRSW / SW / Tau / EDV: heart failure canines, i.v. infusion; for ESP / ESPVR / HR / PRSW / SW / Tau: Dose Rate (μmol/kg/min): CXL-1020 100, (1) 75, (2) 100, (83) 65, (84) 77; for EDV: Dose Rate : CXL-1020 100, (1) 75, (2) 100, (83) 65, (84) 77; for hemodynamic activity compared with CXL-1020: both normal and failing canine models, FIG. 1
Method: The cardiovascular effects of nitroxyl donors were examined by means of pressure-volume (PV) curve (loops) analysis in conscious, sling-restrained beagle dogs. Animals were allowed free access to drinking water and a commercial canine diet under standard laboratory conditions. Fluorescent lighting was provided via an automatic timer for approximately 12 hours per day. On occasion, the dark cycle was interrupted intermittently due to study-related activities. Temperature and humidity were monitored and recorded daily and maintained to the maximum extent possible between 64° F. and 84° F. and 30% to 70%, respectively. The dogs were acclimated for a period of at least 1 week prior to surgery. Following surgery and recovery the animals were acclimated to sling restraint for a period up to 4.5 hours. Animals were fasted overnight prior to surgery. An indwelling venous catheter was placed in peripheral vein (e.g., cephalic) for administration of anesthetic. General anesthesia was induced intravenously (bolus) with buprenorphine (about 0.015 mg/kg) followed by an intravenous bolus of propofol (about 6 mg/kg). Additionally, a prophylactic antibiotic (cefazolin 20 to 50 mg/kg via i.v.) was given upon induction. […] Anesthesia was maintained with inhaled isoflurane (1% to 3%). Once a stable (surgical) plane of anesthesia had been established, a left-thoracotomy was performed (under strict aseptic conditions) and each animal was chronically instrumented with sono-micrometry crystals providing left-ventricular (LV) dimensions/volume. Additionally, a fluid-filled catheter and a solid-state monometer were placed in the left ventricle for pressure monitoring. A fluid-filled catheters was placed in the right ventricle (RV) and the aorta (Ao) for pressure monitoring/test article administration. […] The catheters/wires were aseptically tunneled and externalized between the scapulae. Over the course of the study, fluid-filled catheters were regularly (at least once weekly) flushed with a locking-solution in order to prevent both clotting and bacterial growth (2-3 mL of Taurolidine-Citrate solution, TCS-04; Access Technologies). Following the cardiovascular instrumentation, the right jugular vein was carefully exposed and cannulated with a bipolar pacing lead/catheter ([…]® Novus; Medtronic). Under fluoroscopic guidance, this pacing lead was advanced normograde into the right ventricle and actively affixed (screwed in) to the apical endocardium. The proximal end of the lead was secured to the pacing device (Kappa 900; Medtronic). Subsequently, the pacemaker was placed/secured in a subcutaneous pocket in the neck. Considering that the heart was exposed via a thoracotomy, a bipolar pacing wire was secured in the right ventricular mid-myocardium. This pacing lead was tunneled/externalized between the scapulae, and used in conjunction with an external impulse generator/pacemaker. The implanted endocardial pacemaker was used as a back-up to the external/epicardial pacemaker. Prior to closure of the chest from the thoracotomy, a chest tube was placed for drainage of any fluid and/or gas that accumulated from the surgical procedure. The tube was aspirated twice daily until the amount of fluid removed was less than 35 mL per aspiration in an approximately 24 hour period. The chest tube was then removed. All animals were administered a prophylactic antibiotic (cefazolin 20 to 50 mg/kg via i.v.) and pain medication (meloxicam at about 0.2 mg/kg via i.v.). If necessary, an additional analgesic was also administered which included a fentanyl patch (25 to 50 mcg/hour). All surgical incisions were closed in layers; the underlying musculature was closed with absorbable sutures and the skin was closed with staples. Following surgery, the animals were allowed to recover for at least 14 days. Cephalexin (20 to 50 mg/kg) was administered orally BID for at least 7 days and meloxicam (0.1 mg/kg) was administered SID orally or subcutaneously for at least 2 days after surgery. […]

Compound	finding in upper forelimb downstream from catheter tip (beagle dogs; after 6 hours of infusion, percutaneous catheter in cephalic vein, dogs)	microscopic pathology at the catheter tip (beagle dogs; after 24 hours of infusion, percutaneous catheter in cephalic vein, dogs)	NOAEL (μg/kg/min) (actual) (beagle dogs)	ESP (heart failure canines)	ESPVR (heart failure canines)	HR (heart failure canines)	PRSW (heart failure canines)	SW (heart failure canines)	Tau (heart failure canines)	EDV (heart failure canines)	improvement relative to CXL-1020 (beagle dogs; NOAEL, clinical pathology markers)	NOAEL compared with CXL-1020 (beagle dogs; clinical pathology markers)	hemodynamic activity compared with CXL-1020 (heart failure canines)
CS(=O)(=O)c1ccccc1S(=O)(=O)NO [CXL-1020, N-hydroxy-2-methanesulfonylbenzene-1-sulfonamide, reference compound]	significant edema	severe thrombophlebitis	<0.03 µg/kg/min	−14.78 ± 3.24 % Change from Baseline	45.42 ± 16.48 % Change from Baseline	−0.23 ± 2.25 % Change from Baseline	21.97 ± 3.79 % Change from Baseline	−12.01 ± 4.24 % Change from Baseline	−17.27 ± 1.39 % Change from Baseline	−12.03 ± 3.72 % Change from Baseline			
Cc1ccc(S(=O)(=O)NO)o1 [Compound 1, N-Hydroxy-5-methylfuran-2-sulfonamide]			>20 µg/kg/min	−17 ± 1 % Change from Baseline	29 ± 1 % Change from Baseline	−6 ± 2 % Change from Baseline	22 ± 1 % Change from Baseline	10 ± 5 % Change from Baseline	−16 ± 4 % Change from Baseline	−9 ± 2 % Change from Baseline	greater than 660 fold	significantly higher than that of CXL-1020	comparable hemodynamic activity to CXL-1020
CS(=O)(=O)c1cccc(S(=O)(=O)NO)c1 [Compound 2, N-Hydroxy-3-methanesulfonylbenzene-1-sulfonamide]			3 µg/kg/min	−13.83 ± 3.30 % Change from Baseline	22.84 ± 5.69 % Change from Baseline	−1.36 ± 2.06 % Change from Baseline	17.91 ± 1.47 % Change from Baseline	−9.41 ± 2.84 % Change from Baseline	−12.51 ± 2.72 % Change from Baseline	−3.26 ± 1.05 % Change from Baseline		significantly higher than that of CXL-1020	comparable hemodynamic activity to CXL-1020
O=S(=O)(NO)c1ccco1 [Compound 83, N-Hydroxyfuran-2-sulfonamide]			3 µg/kg/min	−18.52 ± 2.59 % Change from Baseline	38.06 ± 8.79 % Change from Baseline	0.05 ± 1.25 % Change from Baseline	14.90 ± 2.27 % Change from Baseline	−9.63 ± 1.70 % Change from Baseline	−18.32 ± 3.06 % Change from Baseline	−4.91 ± 0.57 % Change from Baseline		significantly higher than that of CXL-1020	comparable hemodynamic activity to CXL-1020
Cc1ccc(S(=O)(=O)NO)s1 [Compound 84, N-Hydroxy-5-methylthiophene-2-sulfonamide]			10 µg/kg/min	−13.72 ± 2.83 % Change from Baseline	51.01 ± 5.85 % Change from Baseline	3.72 ± 2.45 % Change from Baseline	25.03 ± 2.52 % Change from Baseline	−5.96 ± 1.58 % Change from Baseline	15.61 ± 1.58 % Change from Baseline	−13.43 ± 4.63 % Change from Baseline		significantly higher than that of CXL-1020	comparable hemodynamic activity to CXL-1020
Cn1ccc(S(=O)(=O)NO)n1 [Compound 85, N-Hydroxy-1-methyl-1H-pyrazole-3-sulfonamide]			3 µg/kg/min									significantly higher than that of CXL-1020	comparable hemodynamic activity to CXL-1020
